For orientation: solubility means the dissolved amount per volume that the medium holds. A lower solubility goes with little dissolved substance. Usually IC50 stands for the concentration that gives 50% inhibition. High values mean weaker potency, low ones greater potency.

Data set [1] deals with Nrf2. Description: Western blot of Nrf2 in nuclear extract of BV2 cells. Format: cell-based. The settings on record: 0 μM to 10 μM, 6 hours, relative to Lamin B1. Here is the method:
Through Experimental Example 1, the activation of Nrf2 by the compounds of the present invention was indirectly confirmed. Thus, in order to directly confirm the effect of the compounds of the present invention on Nrf2 activation, Western blot was performed. […] Specifically, BV2 cells were loaded in a 25T flask at a density of 2×10^6 cells/flask in an amount of 4 mL and incubated in RPM1640 medium for 24 hours. […] The thus-incubated cells were recovered, and the nucleus and cytoplasmic extracts were separated. The thus-separated nuclear extract was electrophoresed by 10% SDS-PAGE, transferred to a PVDF membrane, and blocked with bovine serum albumin (BSA). Thereafter, the amount of Nrf2 protein in the nucleus was measured using an anti-Nrf2 antibody, and the results are shown in FIG. 1. The amount of Nrf2 was measured relative to Lamin B1, which refers to the same amount of nuclear extract.
For orientation: In western blotting, separated proteins are transferred to a membrane and probed.

Data set [2] in a line: Solubility in water. Format: physicochemical. The source says: In the development of new drugs, the solubility of drugs is one of the very important factors associated with the bio-absorption rate. […] In addition, drugs with low solubility may crystallize in tissues or cause serious toxicity, and thus, the FDA requires additional research results on oral drugs with low solubility. Furthermore, low solubility may also be the biggest cause of failure in the development of candidate materials.

Data set [3] has as its system GCLC, GCLM, and HO-1. Put plainly: Western blot of Nrf2-related antioxidant enzymes in BV2 cells. It counts as cell-based. The conditions noted are these: 0 μM to 10 μM, 24 hours, relative to actin. The source says: As a transcription factor, Nrf2 acts to protect cells by increasing antioxidant enzymes in the nucleus. Through preceding Experimental Examples 1 and 6, the activation of Nrf2 by the compound of the present invention was confirmed directly or indirectly. Thus, whether the activated Nrf2 increases antioxidant enzymes was confirmed by measuring the amount of antioxidant enzymes using Western blot. As antioxidant enzymes to be detected, GCLC, GCLM, and HO-1, expression of which is known to increase due to Nrf2, were selected. Specifically, BV2 cells were loaded at a density of 5×10^5 cells/well in a 6-well plate in an amount of 1.5 mL, and incubated in RPM1640 medium for 24 hours. […] The thus-incubated cells were recovered and lysed to extract the total protein, and then subjected to electrophoresis by 10% SDS-PAGE. The total extract subjected to electrophoresis was transferred to a PVDF membrane and then blocked with bovine serum albumin. Thereafter, the amount of antioxidant enzymes expressed in cells was measured using antibodies corresponding to each antioxidant enzyme, and the results are shown in FIG. 2.

Data set [4] deals with dopaminergic neurons. Put plainly: Tyrosine hydroxylase immunohistochemical staining of corpus striatum and substantia nigra, MPTP mice. The settings on record: Compound 15 orally. Format: in vivo, C57/BL6 mice. The source says: From the results of Experimental Example 8, the effect of restoring exercise ability by the compound of the present invention was confirmed. In order to confirm whether the recovery of such exercise ability was due to the neuroprotective effect of the compounds of the present invention, brains were excised from mice and analyzed by immunohistochemical staining using tyrosine hydroxylase used as a marker for dopaminergic neurons. As a site for analysis, the corpus striatum and substantia nigra, which are concentrated with dopaminergic neurons, were selected. Specifically, after anesthetizing the mice in the negative control group, the positive control group, and the experimental group with avertin, physiological saline and 4% formaldehyde were injected into the heart, and the brain was excised, which was sequentially immersed in 4% formaldehyde and 30% sucrose, and stored in the refrigerator for one day each. Thereafter, the tissue fragments of the corpus striatum and substantia nigra were obtained from the stored brain using a cryosectioning machine. The brain tissue fragments were stained by DAB staining using a tyrosine hydroxylase antibody, which is specifically expressed in dopaminergic neurons, by immunohistochemical staining, and observed with a microscope, and the results are shown in FIG. 4.

Data set [5] deals with MPTP-induced Parkinson's disease model. Put plainly: Vertical grid test in MPTP-induced Parkinson's disease mice. The conditions noted are these: orally 20 mg/mL once a day for 3 days from the day before MPTP; test 6 days after MPTP. Format: in vivo, C57/BL6 mice. Here is the method:
(§1) A specifically designed animal experiment schedule is shown at the top of FIG. 3. […] The MPTP-induced Parkinson's disease model was prepared by injecting 20 mg/kg of MPTP intraperitoneally at 2-hour intervals a total of 4 times in a day. In the negative control group, physiological saline solution containing no MPTP was injected at the same time. In order to confirm whether or not Parkinson's disease was induced, motor impairment caused by dopaminergic neuronal cell death, known as the main symptom of Parkinson's disease, was confirmed by a vertical grid test and a coat-hanger test.
The vertical grid test evaluates the time to climb down when an experimental animal model is placed on a vertical ladder. In the present invention, the time to turn towards the floor and the total time taken to climb down from the ladder were measured once the mice were placed on a ladder.

For data set [6] the test system is unchanged. Description: Coat-hanger test in MPTP-induced Parkinson's disease mice. Format: in vivo, C57/BL6 mice. The settings on record: orally 20 mg/mL once a day for 3 days from the day before MPTP; time limit 3 minutes. Here is the method: as §1
The coat-hanger test, which is another behavioral experiment that evaluates exercise ability, was conducted as follows, as shown in the bottom left of FIG. 3: when the mice were placed in the middle of a hanger 30 cm away from the floor, the mice moved toward a safe position on the top of the hanger while being hanged, and a score was assigned according to the position at the time point with a time limit of 3 minutes. The specific experimental method and the result are shown at the bottom of FIG. 3. As shown in the graph at the bottom of FIG. 3, most of the negative control moved to the top of the hanger, corresponding to 5 points, but in the case of the positive control, 2 to 3 points were recorded because the mice mainly stopped at both ends of the bottom of the hanger.

The conditions of data set [7]: background statement; cited from earlier work.
The test system of data set [8] is Nrf2. Put plainly: Nrf2 functional cell-based assay (DisoveRx), luminescence. The settings on record: relative to Compound 15.
The target in data set [9] is T1, CYP 2C19 (Homo sapiens, UniProt P33261).
T1 construct: from tissue; host or cells: human liver microsomes
T1 sequence (P33261 whole entry): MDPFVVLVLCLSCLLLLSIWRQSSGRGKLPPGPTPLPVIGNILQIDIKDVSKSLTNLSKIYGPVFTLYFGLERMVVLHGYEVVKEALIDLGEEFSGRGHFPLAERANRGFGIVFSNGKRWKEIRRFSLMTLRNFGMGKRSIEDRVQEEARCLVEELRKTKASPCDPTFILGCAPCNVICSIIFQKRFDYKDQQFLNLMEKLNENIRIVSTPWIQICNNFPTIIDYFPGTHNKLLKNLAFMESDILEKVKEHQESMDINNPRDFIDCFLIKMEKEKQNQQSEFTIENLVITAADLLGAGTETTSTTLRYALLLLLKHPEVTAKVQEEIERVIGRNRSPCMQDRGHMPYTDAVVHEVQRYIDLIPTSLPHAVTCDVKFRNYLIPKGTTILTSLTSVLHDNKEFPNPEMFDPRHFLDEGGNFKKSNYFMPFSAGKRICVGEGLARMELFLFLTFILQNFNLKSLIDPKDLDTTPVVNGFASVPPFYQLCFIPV
Description: Inhibition of CYP activity in human liver microsomes, 2C19. It counts as in vitro ADME. The settings on record: 10 μM compound, human liver microsomes 0.25 mg/mL; % activity relative to the negative control. Here is the method:
(§2) Thereafter, the reaction was terminated by adding an acetonitrile solution containing an internal standard substrate (terfenadine), followed by centrifugation (14,000 rpm, 4° C.) for 5 minutes. Subsequently, the supernatant was injected into the LC-MS/MS system, and the metabolites of the substrate drugs were simultaneously analyzed to evaluate the inhibitory ability of these compounds on drug metabolic enzymes. The metabolites of each CYP isoenzyme indicator drug generated through the above reaction were analyzed using the Shimadzu Nexera XR system and TSQ vantage (Thermo). A Kinetex C18 column was used as the HPLC column, and distilled water containing 0.1% formic acid and acetonitrile containing 0.1% formic acid were used as the mobile phase. The generated metabolites were quantified using the quantification mode of multiple reaction monitoring (MRM), and data were analyzed with Xcalibur (version 1.6.1).
For orientation: Liver microsomes are vesicles of endoplasmic reticulum, rich in cytochrome P450 enzymes.

For data set [10] the following is noted: background statement; cited from earlier work. This is another data set of the same source.
Data set [11] addresses T2, CYP 2C9 (Homo sapiens, UniProt P11712).
T2 construct: from tissue; host or cells: human liver microsomes
Put plainly: Inhibition of CYP activity in human liver microsomes, 2C9. Format: in vitro ADME. The settings on record: 10 μM compound, human liver microsomes 0.25 mg/mL, % activity relative to the negative control. Here is the method: as §2

The target in data set [12] is T3, CYP 2D6 (Homo sapiens, UniProt P10635).
T3 construct: from tissue; host or cells: human liver microsomes
T3 sequence (P10635 whole entry): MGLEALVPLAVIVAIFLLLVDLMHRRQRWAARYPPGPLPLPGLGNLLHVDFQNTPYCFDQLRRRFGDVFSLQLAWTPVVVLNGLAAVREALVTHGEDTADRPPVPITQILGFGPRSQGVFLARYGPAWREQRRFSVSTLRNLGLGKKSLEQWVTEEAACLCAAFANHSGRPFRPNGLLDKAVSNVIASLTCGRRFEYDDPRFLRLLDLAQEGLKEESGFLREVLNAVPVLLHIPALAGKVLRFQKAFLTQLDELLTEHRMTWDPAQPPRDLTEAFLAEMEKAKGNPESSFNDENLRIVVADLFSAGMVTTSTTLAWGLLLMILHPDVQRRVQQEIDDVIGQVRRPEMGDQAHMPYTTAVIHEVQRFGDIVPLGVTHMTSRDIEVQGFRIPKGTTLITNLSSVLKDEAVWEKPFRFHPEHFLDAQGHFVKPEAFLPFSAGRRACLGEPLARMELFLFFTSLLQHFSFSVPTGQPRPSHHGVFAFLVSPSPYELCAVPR
Description: Inhibition of CYP activity in human liver microsomes, 2D6. It counts as in vitro ADME. The settings on record: 10 μM compound, human liver microsomes 0.25 mg/mL; % activity relative to the negative control. As for the experimental part: as §2

Data set [13] concerns the target T4, CYP 3A4 (Homo sapiens, UniProt P08684).
T4 construct: from tissue; host or cells: human liver microsomes
Description: Inhibition of CYP activity in human liver microsomes, 3A4. It counts as in vitro ADME. The conditions noted are these: 10 μM compound, human liver microsomes 0.25 mg/mL; % activity relative to the negative control. Here is the method: as §2

Data set [14] deals with hERG channel (Homo sapiens, UniProt Q12809). Description: hERG channel-binding inhibition (fluorescent tracer polarization). The settings on record: hERG channel-containing membrane. An excerpt: The human ether-a-go-go-related gene (hERG) ion channel is an important component of cardiac repolarization, and inhibitors of this channel can induce arrhythmia and sudden death. […] When a fluorescent hERG channel tracer binds to a membrane containing the hERG channel protein, the rotation of the tracer is restricted, thereby maintaining a high polarization state. However, when a competitive inhibitor binds to the hERG channel, the tracer is competitively pushed away from the membrane and depolarized as it loses its direction.
hERG channel, sequence (Q12809 whole entry): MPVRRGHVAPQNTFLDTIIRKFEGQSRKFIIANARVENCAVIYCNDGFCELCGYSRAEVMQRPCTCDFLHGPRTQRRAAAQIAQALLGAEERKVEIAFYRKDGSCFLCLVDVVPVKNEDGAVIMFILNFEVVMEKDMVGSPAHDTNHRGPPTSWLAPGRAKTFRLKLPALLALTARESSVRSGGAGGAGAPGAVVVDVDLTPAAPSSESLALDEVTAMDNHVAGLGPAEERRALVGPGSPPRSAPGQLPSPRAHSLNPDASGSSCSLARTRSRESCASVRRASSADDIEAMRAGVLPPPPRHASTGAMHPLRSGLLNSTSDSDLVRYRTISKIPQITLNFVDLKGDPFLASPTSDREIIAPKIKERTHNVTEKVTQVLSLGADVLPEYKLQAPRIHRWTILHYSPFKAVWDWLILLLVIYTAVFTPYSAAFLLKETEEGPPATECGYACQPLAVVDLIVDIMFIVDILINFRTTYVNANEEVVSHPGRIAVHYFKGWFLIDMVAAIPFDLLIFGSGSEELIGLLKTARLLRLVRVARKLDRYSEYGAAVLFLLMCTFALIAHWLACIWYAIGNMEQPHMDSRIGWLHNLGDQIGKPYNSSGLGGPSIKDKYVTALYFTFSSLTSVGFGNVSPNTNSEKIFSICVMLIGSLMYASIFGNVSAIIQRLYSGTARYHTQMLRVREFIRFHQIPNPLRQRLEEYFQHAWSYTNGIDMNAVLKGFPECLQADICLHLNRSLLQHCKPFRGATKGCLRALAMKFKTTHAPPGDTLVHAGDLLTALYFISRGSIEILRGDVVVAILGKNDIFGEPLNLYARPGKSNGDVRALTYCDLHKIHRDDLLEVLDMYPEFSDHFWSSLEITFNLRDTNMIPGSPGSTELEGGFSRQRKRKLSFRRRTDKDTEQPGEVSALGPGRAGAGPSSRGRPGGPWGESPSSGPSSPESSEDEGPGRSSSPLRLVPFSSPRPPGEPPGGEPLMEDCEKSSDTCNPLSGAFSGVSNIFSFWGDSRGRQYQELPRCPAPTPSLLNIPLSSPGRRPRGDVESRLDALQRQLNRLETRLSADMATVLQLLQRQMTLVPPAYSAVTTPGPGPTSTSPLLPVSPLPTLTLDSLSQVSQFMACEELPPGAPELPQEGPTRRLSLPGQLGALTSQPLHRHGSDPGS
On the technique in general: The hERG channel carries a current that helps repolarise heart muscle cells.

For data set [15] the following is noted: background statement, cited from earlier work.
Setting [16] is: when administered into the body.

Several values for one entry are separate records, joined by “and”; a condition that tells them apart may be missing. Identical values can stand only once.

T2 sequence (P11712 whole entry): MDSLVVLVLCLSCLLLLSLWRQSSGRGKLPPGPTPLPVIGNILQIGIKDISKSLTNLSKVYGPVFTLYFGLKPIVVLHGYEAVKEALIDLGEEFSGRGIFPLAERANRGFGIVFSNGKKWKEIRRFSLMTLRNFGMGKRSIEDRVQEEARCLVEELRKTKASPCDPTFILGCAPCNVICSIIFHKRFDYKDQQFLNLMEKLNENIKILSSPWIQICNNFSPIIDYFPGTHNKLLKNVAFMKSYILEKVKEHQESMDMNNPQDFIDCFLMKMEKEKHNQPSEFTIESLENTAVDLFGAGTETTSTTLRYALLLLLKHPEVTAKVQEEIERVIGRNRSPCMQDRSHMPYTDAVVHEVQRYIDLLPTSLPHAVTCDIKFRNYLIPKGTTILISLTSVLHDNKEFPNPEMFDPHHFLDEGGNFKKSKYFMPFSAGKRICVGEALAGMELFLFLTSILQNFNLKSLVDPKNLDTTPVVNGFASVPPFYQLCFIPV
T4 sequence (P08684 whole entry): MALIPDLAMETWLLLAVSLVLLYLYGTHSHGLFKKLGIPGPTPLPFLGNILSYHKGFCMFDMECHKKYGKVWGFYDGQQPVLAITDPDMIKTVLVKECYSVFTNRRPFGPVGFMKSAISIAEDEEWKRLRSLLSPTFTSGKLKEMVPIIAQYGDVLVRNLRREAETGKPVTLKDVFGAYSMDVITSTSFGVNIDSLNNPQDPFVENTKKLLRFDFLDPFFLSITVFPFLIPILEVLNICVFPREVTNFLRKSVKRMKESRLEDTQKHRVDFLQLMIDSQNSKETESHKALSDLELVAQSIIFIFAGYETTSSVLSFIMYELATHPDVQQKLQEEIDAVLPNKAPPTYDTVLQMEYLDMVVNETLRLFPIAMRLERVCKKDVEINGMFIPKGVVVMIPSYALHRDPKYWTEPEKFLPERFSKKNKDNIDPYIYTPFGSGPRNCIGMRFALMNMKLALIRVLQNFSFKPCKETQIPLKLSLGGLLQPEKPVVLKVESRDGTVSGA

As for `Cl.O=S(=O)(/C=C/c1ncccc1F)c1ccc(OCCCN2CCOCC2)cc1` [Compound 15, (E)-4-(3-(4-(2-(3-fluoropyridin-2-yl)vinylsulfonyl)phenoxy)propyl)morpholine hydrochloride], the “Amount of Nrf2 protein in the nucleus” value in data set [1] is “promotes the activation of Nrf2 in a concentration-dependent manner”. The solubility in data set [2] was at least 10 mg/mL. The “Expression of Nrf2 and antioxidant enzymes GCLC, GCLM, and HO-1” value in [3] is “increased the expression of antioxidant enzymes through Nrf2 activation in a concentration-dependent manner”. Moreover, the “Tyrosine hydroxylase staining of corpus striatum and substantia nigra” value in data set [4] was “the staining became dark again”. In addition, in data set [5], the “Vertical grid test: time to turn” value is recorded as “reduced again to a level similar to that of the negative control group” and the “Vertical grid test: total time to climb down” value is “reduced again to a level similar to that of the negative control group”. Also, in data set [6], the “Coat-hanger test score, average” value is listed as at least 4 points.
In the case of `C[S+]([O-])CCCCN=C=S` (centres unmarked) [SFN (sulforaphane), 1-isothiocyanato-4-methylsulfinylbutane], the “Time until dissipated when administered into the body” value in data set [7] is at most 1 h.
As to `COc1ccccc1S(=O)(=O)/C=C/c1ccccc1Cl` [VSC2, (E)-1-chloro-2-(2-(2-methoxyphenylsulfonyl)vinyl)benzene, reference compound], the “Effect of inducing Nrf2 activity as % of the level of Compound 15” value in data set [8] is recorded as “about 60%”. Also, in [9], the “CYP 2C19 activity” value was found to be 16.8%. For the same compound, in data set [10], the “Solubility in water (in words)” value is “low”. The “CYP 2C9 activity” value is listed as 100.0% in [11] and 100% in data set [11] (listed as Comparative Example 1). The compound further displayed a solubility in [2] of at most 0.01 mg/mL. Besides, in [12], the “CYP 2D6 activity” value is recorded as 54.9%. Further, the “CYP 3A4 activity” value in data set [13] is given as 55.6%. Also, in data set [14], the IC50 is 1 µM and 1.2 µM. In addition, in [15], the Cardiac toxicity entry is “cardiac toxicity”. Besides, the Bioavailability result in [15] (setting [16]) is “low”. Moreover, the Drug metabolic stability entry in data set [15] (setting [16]) was “low”.
